Columns and labels:
[1] = target: T1, BCDIN3D (Homo sapiens, UniProt Q7Z5W3); test: BCDIN3D IC50 RFMS (RapidFire) assay with mini-helix; assay type: biochemical; settings: 25 nM enzyme
T1 sequence (Q7Z5W3 1-292): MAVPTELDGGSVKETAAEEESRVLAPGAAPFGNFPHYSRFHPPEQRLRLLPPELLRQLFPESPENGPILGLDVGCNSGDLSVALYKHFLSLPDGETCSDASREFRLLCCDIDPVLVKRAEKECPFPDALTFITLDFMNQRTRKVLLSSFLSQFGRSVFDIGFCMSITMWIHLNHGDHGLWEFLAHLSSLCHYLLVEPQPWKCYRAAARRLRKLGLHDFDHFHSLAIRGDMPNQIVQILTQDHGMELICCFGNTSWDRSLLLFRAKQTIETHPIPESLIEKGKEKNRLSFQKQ
Outline: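 SAH formation was measured by RapidFire mass spectrometry with D4- and 13C10-SAH internal standards after TCA quench. Substrates 6 μM SAM and 0.2 μM mini-helix reacted 1 h at 37 °C with 25 nM enzyme, which had been preincubated 10 min with compound (1% DMSO) in Tris pH 8.0 buffer with DTT, EDTA, BSA.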

[2] = target: T1, BCDIN3D; test: BCDIN3D InCellPulse thermal stability assay in transfected A549 cells; assay type: cell-based; settings: heat shock 58° C. 15 min
Outline: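 Thermal stabilisation read-out: after a 15 min 58 °C heat shock, ePL-tagged BCDIN3D in transiently transfected A549 cells (1500/well) was quantified by enzyme-fragment complementation luminescence. Compounds were pre-incubated with cells 1 h at 37 °C, 0.6% DMSO final.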

[3] = mini-helix substrate 0.2 μM, SAM 6 μM
[4] = transiently transfected A549 cells
[5] = mini-helix 0.2 μM and SAM 6 μM as substrates, 1 hr at 37° C.
[6] = A549 cells transiently transfected with ePL-BCDIN3D, 1 h pre-incubation

Row | SMILES | IC50 [1, 3] | IC50 [2, 4] | IC50 [1, 5] | IC50 [2, 6]
1 | Cc1ccc(Nc2nc(NCC3(N)CC3)nc3c2cnn3C)cc1Cl [Compound 2.09, 6-N-[(1-aminocyclopropyl)methyl]-4-N-(3-chloro-4-methylphenyl)-1-methylpyrazolo[3,4-d]pyrimidine-4,6-diamine] | 39.8 nM | 602 nM | – | –
2 | Cn1ncc2c(Nc3ccc(C(F)(F)F)cc3)nc(NCC3(N)CCC3)nc21 [Compound 3.08, N6-[(1-aminocyclobutyl)methyl]-1-methyl-N4-[4-(trifluoromethyl)phenyl]pyrazolo[3,4-d]pyrimidine-4,6-diamine] | 50.5 nM | 259 nM | – | –
3 | Cn1ncc2c(Nc3ccc(C(F)(F)F)cc3)nc(NCC(N)C3CCCCC3)nc21 (stereo not drawn) [Compound 3.11, N6-(2-amino-2-cyclohexyl-ethyl)-1-methyl-N4-[4-(trifluoromethyl)phenyl]pyrazolo[3,4-d]pyrimidine-4,6-diamine] | 101 nM | 65.4 nM | – | –
4 | Cn1ncc2c(Nc3cc(F)c(Cl)c(F)c3)nc(NCC3(N)CC3)nc21 [Compound 2.20, 6-N-[(1-aminocyclopropyl)methyl]-4-N-(4-chloro-3,5-difluorophenyl)-1-methylpyrazolo[3,4-d]pyrimidine-4,6-diamine] | 179 nM | 887 nM | – | –
5 | Cn1ncc2c(Nc3ccc(C(F)(F)F)nc3)nc(NCC3(N)CCOCC3)nc21 [Compound 1.35, 6-N-[(4-aminooxan-4-yl)methyl]-1-methyl-4-N-[6-(trifluoromethyl)pyridin-3-yl]pyrazolo[3,4-d]pyrimidine-4,6-diamine] | – | – | 3950 nM | 7880 nM
6 | Cn1ncc2c(Nc3ccc(C(F)(F)F)cc3)nc(NCC3(N)CC(F)(F)C3)nc21 [Compound 3.12, 6-N-[(1-amino-3,3-difluorocyclobutyl)methyl]-1-methyl-4-N-[4-(trifluoromethyl)phenyl]pyrazolo[3,4-d]pyrimidine-4,6-diamine] | 479 nM | 1570 nM | – | –
7 | Cc1ccc(CNc2nc(NCC(C)N)nc3c2cnn3C)cc1Cl (stereo not drawn) [Compound 3.01, 6-N-(2-aminopropyl)-4-N-[(3-chloro-4-methylphenyl)methyl]-1-methylpyrazolo[3,4-d]pyrimidine-4,6-diamine] | 3320 nM | 2280 nM | – | –
8 | Cn1ncc2c(Nc3cccc(Cl)c3)nc(NCC3(N)CC3)nc21 [Compound 2.35, 6-N-[(1-aminocyclopropyl)methyl]-4-N-(3-chlorophenyl)-1-methylpyrazolo[3,4-d]pyrimidine-4,6-diamine] | 260 nM | 1980 nM | – | –
9 | Cn1ncc2c(Nc3cccc(C(F)F)c3)nc(NCC3(N)CC3)nc21 [Compound 2.07, 6-N-[(1-aminocyclopropyl)methyl]-4-N-[3-(difluoromethyl)phenyl]-1-methylpyrazolo[3,4-d]pyrimidine-4,6-diamine] | 443 nM | 4100 nM | – | –
10 | Cc1nn(C)c2nc(NCC(C)(C)N)cc(NCc3cccc(C(F)(F)F)c3)c12 [Compound 1.38, 6-N-(2-Amino-2-methylpropyl)-1,3-dimethyl-4-N-[[3-(trifluoromethyl)phenyl]methyl]pyrazolo[3,4-b]pyridine-4,6-diamine] | – | – | 8630 nM | 4000 nM
11 | Cn1ncc2c(Nc3ccc(C(F)(F)F)cc3)nc(NCC3(N)CCOC3)nc21 (stereo not drawn) [Compound 3.14, 6-N-[(3-aminooxolan-3-yl)methyl]-1-methyl-4-N-[4-(trifluoromethyl)phenyl]pyrazolo[3,4-d]pyrimidine-4,6-diamine] | 252 nM | 2410 nM | – | –
12 | Cn1ncc2c(Nc3ccc(OC(F)F)cc3)nc(NCC3(N)CCCC3)nc21 [Compound 3.20, 6-N-[(1-aminocyclopentyl)methyl]-4-N-[4-(difluoromethoxy)phenyl]-1-methylpyrazolo[3,4-d]pyrimidine-4,6-diamine] | 305 nM | 724 nM | – | –
13 | CC[C@@H](N)CNc1nc(NCc2ccc(C)c(Cl)c2)c2cnn(C)c2n1 [Compound 3.07, 6-N-[(2R)-2-aminobutyl]-4-N-[(3-chloro-4-methylphenyl)methyl]-1-methylpyrazolo[3,4-d]pyrimidine-4,6-diamine] | 299 nM | 664 nM | – | –

Second part, the compound after the results:

Row | IC50 [1, 3] | IC50 [2, 4] | IC50 [1, 5] | IC50 [2, 6] | SMILES
14 | – | – | 7650 nM | 10800 nM | CNc1nc(NC[C@@](C)(N)c2ccccc2)nc2c1cnn2C (single isomer, unassigned) [Compound 7.10]
15 | 345 nM | 643 nM | – | – | Cc1ccc(CNc2nc(NCC(N)c3ccccc3F)nc3c2cnn3C)cc1Cl (stereo not drawn) [Compound 5.12, 6-N-[2-amino-2-(2-fluorophenyl)ethyl]-4-N-[(3-chloro-4-methylphenyl)methyl]-1-methylpyrazolo[3,4-d]pyrimidine-4,6-diamine]
16 | 149 nM | 318 nM | – | – | Cn1ncc2c(Nc3ccc(OC(F)F)nc3)nc(NCC(N)c3ccccc3)nc21 (stereo not drawn) [Compound 4.28, N6-(2-amino-2-phenyl-ethyl)-N4-[6-(difluoromethoxy)-3-pyridyl]-1-methyl-pyrazolo[3,4-d]pyrimidine-4,6-diamine]
17 | – | – | 2510 nM | 6610 nM | CCOc1nc(NCC(N)c2ccccc2)nc2c1cnn2C (stereo not drawn) [Compound 6.01, N′-(4-Ethoxy-1-methylpyrazolo[3,4-d]pyrimidin-6-yl)-1-phenylethane-1,2-diamine]
18 | 2810 nM | 10000 nM | – | – | Cn1ncc2c(NC3CC(F)(F)C3)nc(NCC(N)c3ccncc3)nc21 (stereo not drawn) [Compound 5.27, N6-[2-amino-2-(4-pyridyl)ethyl]-N4-(3,3-difluorocyclobutyl)-1-methyl-pyrazolo[3,4-d]pyrimidine-4,6-diamine]
19 | – | – | 981 nM | 2140 nM | [2H]C([2H])([2H])n1ncc2c(NC(C)(C)C)nc(NCC(N)c3ccccc3F)nc21 (stereo in doubt) [Compound 7.17, N6-[(2S)-2-amino-2-(2-fluorophenyl)ethyl]-N4-tert-butyl-1-(trideuteriomethyl)pyrazolo[3,4-d]pyrimidine-4,6-diamine]
20 | 154 nM | 318 nM | – | – | Cn1ncc2c(NCC(C)(C)C)nc(NC[C@H](N)c3ccccc3)nc21 [Compound 4.72, N6-[(2R)-2-amino-2-phenyl-ethyl]-N4-(2,2-dimethylpropyl)-1-methyl-pyrazolo[3,4-d]pyrimidine-4,6-diamine]
21 | 1520 nM | 202 nM | – | – | Cn1ncc2c(Nc3ccc(C(F)(F)F)cc3)nc(NC[C@@H](N)c3ccccc3)nc21 [Compound 4.23, 6-N-[(2S)-2-amino-2-phenylethyl]-1-methyl-4-N-[4-(trifluoromethyl)phenyl]pyrazolo[3,4-d]pyrimidine-4,6-diamine]
22 | – | – | 2190 nM | 2930 nM | Cn1ncc2c(Nc3ccc(F)cc3)nc(NC[C@@H](N)c3ccccc3)nc21 [Compound 7.06, N6-[(2S)-2-amino-2-phenyl-ethyl]-N4-(4-fluorophenyl)-1-methyl-pyrazolo[3,4-d]pyrimidine-4,6-diamine]
23 | – | – | 241 nM | 169 nM | Cn1ncc2c(Nc3ccc(F)cc3)nc(NC[C@H](N)c3ccccc3)nc21 [Compound 7.05, N6-[(2R)-2-amino-2-phenyl-ethyl]-N4-(4-fluorophenyl)-1-methyl-pyrazolo[3,4-d]pyrimidine-4,6-diamine]
24 | 450 nM | 2310 nM | – | – | Cn1ncc2c(NC3CCC(C(F)(F)F)CC3)nc(NC[C@H](N)c3ccccc3)nc21 (stereo partly drawn) [Compound 4.125, N6-[(2R)-2-amino-2-phenylethyl]-1-methyl-N4-[4-(trifluoromethyl)cyclohexyl]-1H-pyrazolo[3,4-d]pyrimidine-4,6-diamine]

Reference: patent publication US20220370453A1 (Storm Therapeutics Ltd, priority 2019, published 2022)
